{"source": "patent US9253983B2", "about": "“Triazole compound and use thereof” (KUREHA CORPORATION, priority 2011, dated 2016)", "key": {"Rhizopus oryzae": {"system": "Rhizopus oryzae", "assay": "Test 1 for antifungal effect, plate medium: R.o", "assay_type": "cell-based", "details": "PDA plate medium", "experimental": "(§1) Compound (1-1a) or Compound (1-2a) was dissolved in dimethyl sulfoxide, and the resulting solution was added to a PDA medium (potato dextrose-agar medium) at about 60° C. The medium and the solution were mixed thoroughly in a conical flask, poured into a petri dish, and allowed to solidify. In this way, a plate medium containing Compound (1-1a) or Compound (1-2a) at a certain concentration was prepared.\n(§2) Meanwhile, test microorganisms cultured on a plate medium in advance were cut out with the use of a cork borer 4 mm in diameter, and were inoculated onto the compound-containing plate medium. After the inoculation, the microorganisms were cultured at their optimum growth temperatures (for example, refer to LIST OF CULTURES 1996 microorganisms 10th edition, Institute for Fermentation (foundation)) for 1 day to 7 days, and their growth was determined by measuring the diameter of their flora. The extent of growth of the microorganisms on the compound-containing plate medium was compared with that of microorganisms on a plate medium where no compound was added, and mycelial growth inhibition rate was calculated by the following equation: R=100(dc−dt)/dc where R is mycelial growth inhibition rate (%), dc is the flora diameter in untreated plate, and dt is the flora diameter in plate treated with the compound.\n(§3) A larger antifungal index indicates a better antifungal effect."}, "Glomerella cingurata": {"system": "Glomerella cingurata", "assay": "Test 1 for antifungal effect, plate medium: G.c", "assay_type": "cell-based", "details": "PDA plate medium", "experimental": "as §1, §2, §3"}, "Sclerotinia sclerotiorum": {"system": "Sclerotinia sclerotiorum", "assay": "Test 1 for antifungal effect, plate medium: S.s", "assay_type": "cell-based", "details": "PDA plate medium", "experimental": "as §1, §2, §3"}, "Pyrenophora graminea": {"system": "Pyrenophora graminea", "assay": "Test 2 for antifungal effect, plate medium: P.g", "assay_type": "cell-based", "details": "PDA plate medium", "experimental": "(§4) Compound (1-1b) or Compound (1-2b) was dissolved in dimethyl sulfoxide, and the resulting solution was added to a PDA medium (potato dextrose-agar medium) at about 60° C. The medium and the solution were mixed thoroughly in a conical flask, poured into a petri dish, and allowed to solidify. In this way, a plate medium containing Compound (1-1b) or Compound (1-2b) at a certain concentration was prepared.\n(§5) Meanwhile, test microorganisms cultured on a plate medium in advance were cut out with the use of a cork borer 4 mm in diameter, and were inoculated onto the compound-containing plate medium. After the inoculation, the pathogens were cultured at their optimum growth temperatures (for example, refer to LIST OF CULTURES 1996 microorganisms 10th edition, Institute for Fermentation (foundation)) for 1 day to 7 days, and their growth was determined by measuring the diameter of their flora. The extent of growth of the pathogens on the compound-containing plate medium was compared with that of pathogens on a plate medium where no compound was added, and mycelial growth inhibition rate was calculated as in Experiment Example 10. Note that, in Experiment Example 11, controls used in the antifungal effect tests are Compound (1-1a) and Compound (1-2a) instead of Compound (1-1b) and Compound (1-2b), respectively.\n(§6) The results were rated on a 1-to-5 scale as in Experiment Example 10."}, "wheat": {"system": "wheat", "assay": "Necrosis (adverse effects) of seed treatment on wheat seeds", "assay_type": "in vivo", "details": "20 days after sowing", "experimental": "A pot experiment was performed to evaluate necrosis (adverse effects) caused by the seed treatment. Compound (1-1a) and Compound (1-2a), each which was dissolved in DMSO to make up such a concentration that the seeds would be treated in treatment amount of 2 g to 200 g ai/100 kg seeds, were each applied to wheat seeds in a vial, and thereafter 8 wheat seeds were sowed in an 80-cm^2 pot. The pot was kept in a greenhouse with water supplied to its bottom. 20 days after the sowing, an extent of necrosis (percentage of necrotic surface area) of wheat was evaluated. A necrosis index was derived from the percentage of the necrotic surface area, based on the criteria shown by Table 13. In Table 13, a smaller necrosis index indicates a lesser adverse effect of necrosis caused by the treatment with the use of a plant disease controlling agent."}, "Gaeumannomyces graminis": {"system": "Gaeumannomyces graminis", "assay": "Test 1 for antifungal effect, plate medium: G.g", "assay_type": "cell-based", "details": "PDA plate medium", "experimental": "as §1, §2, §3"}, "Gibberella fujikuroi": {"system": "Gibberella fujikuroi", "assay": "Test 1 for antifungal effect, plate medium: G.f", "assay_type": "cell-based", "details": "PDA plate medium", "experimental": "as §1, §2, §3"}, "Ustilago nuda": {"system": "Ustilago nuda", "assay": "Test 2 for antifungal effect, plate medium: U.n", "assay_type": "cell-based", "details": "PDA plate medium", "experimental": "as §4, §5, §6"}, "Puccinia recondita": {"system": "Puccinia recondita", "assay": "Controlling effect on wheat brown rust (leaf rust) by foliage spray treatment (Tests 1 and 2)", "assay_type": "in vivo", "details": "foliage spray 0.8 mg/L, 1,000 L/ha, 11 days after inoculation", "experimental": "The wheat plants had been grown in square plastic pots (6 cm×6 cm). The suspensions were left to dry, and inoculated with spores of Puccinia recondita (adjusted at 200 spores per field of vision, Gramin S was added at 60 ppm) by spraying, and kept at 25° C. in a high humidity environment for 48 hours. After that, the plants were kept in a greenhouse. 11 days after the inoculation, the lesion degree of the wheat leaf rust was examined in accordance with the criteria shown in Table 4, and the protective values were calculated by the following equation. Protective value (%)=(1−Average lesion degree in sprayed plot/Average lesion degree in unsprayed plot)×100\nThe wheat plants had been grown in square plastic pots (6 cm×6 cm). The leaves were air-dried, and inoculated with spores of Puccinia recondita (adjusted at 200 spores per field of vision, Gramin S was added at 60 ppm) by spraying, and kept at 25° C. in a high humidity environment for 48 hours. After that, the plants were kept in a greenhouse. 11 days after the inoculation, the lesion degree of the wheat leaf rust was examined, and the protective values were calculated as were in Experiment Example 2."}, "Phaeosphaeria nodorum": {"system": "Phaeosphaeria nodorum", "assay": "Test 1 for antifungal effect, plate medium: P.n", "assay_type": "cell-based", "details": "PDA plate medium", "experimental": "as §1, §2, §3"}, "Botrytis cinerea": {"system": "Botrytis cinerea", "assay": "Test 1 for antifungal effect, plate medium: B.c", "assay_type": "cell-based", "details": "PDA plate medium", "experimental": "as §1, §2, §3"}}, "data": [{"smiles": "CC1(CCl)CCC(Cc2ccc(F)cc2)C1(O)Cn1cncn1", "note": "(single isomer, unassigned) [Compound (1-2a), (1,2-cis, 1,5-cis)-5-(4-fluorobenzyl)-2-chloromethyl-2-methyl-1-(1H-1,2,4-triazole-1-ylmethyl)cyclopentanol]", "values": [{"measurement": "Antifungal index (mycelial growth inhibition rate)", "setting": "Rhizopus oryzae; 0.16 mg/L", "result": "1 (Less than 60%)"}, {"measurement": "Antifungal index (mycelial growth inhibition rate)", "setting": "Rhizopus oryzae; 0.31 mg/L", "result": "1 (Less than 60%)"}, {"measurement": "Antifungal index (mycelial growth inhibition rate)", "setting": "Rhizopus oryzae; 0.63 mg/L", "result": "3 (Less than 80% but not less than 70%)"}, {"measurement": "Antifungal index (mycelial growth inhibition rate)", "setting": "Rhizopus oryzae; 1.25 mg/L", "result": "5 (90% or greater)"}, {"measurement": "Antifungal index (mycelial growth inhibition rate)", "setting": "Rhizopus oryzae; 2.50 mg/L", "result": "5 (90% or greater)"}, {"measurement": "Antifungal index (mycelial growth inhibition rate)", "setting": "Glomerella cingurata; 0.16 mg/L", "result": "5 (90% or greater)"}, {"measurement": "Antifungal index (mycelial growth inhibition rate)", "setting": "Glomerella cingurata; 0.31 mg/L", "result": "5 (90% or greater)"}, {"measurement": "Antifungal index (mycelial growth inhibition rate)", "setting": "Glomerella cingurata; 0.63 mg/L", "result": "5 (90% or greater)"}, {"measurement": "Antifungal index (mycelial growth inhibition rate)", "setting": "Glomerella cingurata; 1.25 mg/L", "result": "5 (90% or greater)"}, {"measurement": "Antifungal index (mycelial growth inhibition rate)", "setting": "Glomerella cingurata; 2.50 mg/L", "result": "5 (90% or greater)"}, {"measurement": "Antifungal index (mycelial growth inhibition rate)", "setting": "Sclerotinia sclerotiorum; 0.16 mg/L", "result": "5 (90% or greater)"}, {"measurement": "Antifungal index (mycelial growth inhibition rate)", "setting": "Sclerotinia sclerotiorum; 0.31 mg/L", "result": "5 (90% or greater)"}, {"measurement": "Antifungal index (mycelial growth inhibition rate)", "setting": "Sclerotinia sclerotiorum; 0.63 mg/L", "result": "5 (90% or greater)"}, {"measurement": "Antifungal index (mycelial growth inhibition rate)", "setting": "Sclerotinia sclerotiorum; 1.25 mg/L", "result": "5 (90% or greater)"}, {"measurement": "Antifungal index (mycelial growth inhibition rate)", "setting": "Sclerotinia sclerotiorum; 2.50 mg/L", "result": "5 (90% or greater)"}, {"measurement": "Antifungal index (mycelial growth inhibition rate)", "setting": "Pyrenophora graminea; 0.04 mg/L", "result": "1 (Less than 60%)"}, {"measurement": "Antifungal index (mycelial growth inhibition rate)", "setting": "Pyrenophora graminea; 0.08 mg/L", "result": "2 (Less than 70% but not less than 60%)"}, {"measurement": "Antifungal index (mycelial growth inhibition rate)", "setting": "Pyrenophora graminea; 0.16 mg/L", "result": "4 (Less than 90% but not less than 80%)"}, {"measurement": "Antifungal index (mycelial growth inhibition rate)", "setting": "Pyrenophora graminea; 0.31 mg/L", "result": "5 (90% or greater)"}, {"measurement": "Antifungal index (mycelial growth inhibition rate)", "setting": "Pyrenophora graminea; 0.63 mg/L", "result": "5 (90% or greater)"}, {"measurement": "Antifungal index (mycelial growth inhibition rate)", "setting": "Pyrenophora graminea; 1.25 mg/L", "result": "5 (90% or greater)"}, {"measurement": "Necrosis index", "setting": "wheat; treatment amount 2 g ai/100 kg seeds", "result": "0 (Less than 1%)"}, {"measurement": "Necrosis index", "setting": "wheat; treatment amount 20 g ai/100 kg seeds", "result": "0 (Less than 1%)"}, {"measurement": "Necrosis index", "setting": "wheat; treatment amount 200 g ai/100 kg seeds", "result": "0 (Less than 1%)"}, {"measurement": "Antifungal index (mycelial growth inhibition rate)", "setting": "Gaeumannomyces graminis; 0.16 mg/L", "result": "1 (Less than 60%)"}, {"measurement": "Antifungal index (mycelial growth inhibition rate)", "setting": "Gaeumannomyces graminis; 0.31 mg/L", "result": "4 (Less than 90% but not less than 80%)"}, {"measurement": "Antifungal index (mycelial growth inhibition rate)", "setting": "Gaeumannomyces graminis; 0.63 mg/L", "result": "5 (90% or greater)"}, {"measurement": "Antifungal index (mycelial growth inhibition rate)", "setting": "Gaeumannomyces graminis; 1.25 mg/L", "result": "5 (90% or greater)"}, {"measurement": "Antifungal index (mycelial growth inhibition rate)", "setting": "Gaeumannomyces graminis; 2.50 mg/L", "result": "5 (90% or greater)"}, {"measurement": "Antifungal index (mycelial growth inhibition rate)", "setting": "Gibberella fujikuroi; 0.16 mg/L", "result": "4 (Less than 90% but not less than 80%)"}, {"measurement": "Antifungal index (mycelial growth inhibition rate)", "setting": "Gibberella fujikuroi; 0.31 mg/L", "result": "5 (90% or greater)"}, {"measurement": "Antifungal index (mycelial growth inhibition rate)", "setting": "Gibberella fujikuroi; 0.63 mg/L", "result": "5 (90% or greater)"}, {"measurement": "Antifungal index (mycelial growth inhibition rate)", "setting": "Gibberella fujikuroi; 1.25 mg/L", "result": "5 (90% or greater)"}, {"measurement": "Antifungal index (mycelial growth inhibition rate)", "setting": "Gibberella fujikuroi; 2.50 mg/L", "result": "5 (90% or greater)"}, {"measurement": "Antifungal index (mycelial growth inhibition rate)", "setting": "Ustilago nuda; 0.04 mg/L", "result": "1 (Less than 60%)"}, {"measurement": "Antifungal index (mycelial growth inhibition rate)", "setting": "Ustilago nuda; 0.08 mg/L", "result": "1 (Less than 60%)"}, {"measurement": "Antifungal index (mycelial growth inhibition rate)", "setting": "Ustilago nuda; 0.16 mg/L", "result": "1 (Less than 60%)"}, {"measurement": "Antifungal index (mycelial growth inhibition rate)", "setting": "Ustilago nuda; 0.31 mg/L", "result": "1 (Less than 60%)"}, {"measurement": "Antifungal index (mycelial growth inhibition rate)", "setting": "Ustilago nuda; 0.63 mg/L", "result": "1 (Less than 60%)"}, {"measurement": "Antifungal index (mycelial growth inhibition rate)", "setting": "Ustilago nuda; 1.25 mg/L", "result": "2 (Less than 70% but not less than 60%)"}, {"measurement": "Protective value (%)", "setting": "Puccinia recondita", "result": 91, "unit": "%"}, {"measurement": "Antifungal index (mycelial growth inhibition rate)", "setting": "Phaeosphaeria nodorum; 0.16 mg/L", "result": "1 (Less than 60%)"}, {"measurement": "Antifungal index (mycelial growth inhibition rate)", "setting": "Phaeosphaeria nodorum; 0.31 mg/L", "result": "2 (Less than 70% but not less than 60%)"}, {"measurement": "Antifungal index (mycelial growth inhibition rate)", "setting": "Phaeosphaeria nodorum; 0.63 mg/L", "result": "5 (90% or greater)"}, {"measurement": "Antifungal index (mycelial growth inhibition rate)", "setting": "Phaeosphaeria nodorum; 1.25 mg/L", "result": "5 (90% or greater)"}, {"measurement": "Antifungal index (mycelial growth inhibition rate)", "setting": "Phaeosphaeria nodorum; 2.50 mg/L", "result": "5 (90% or greater)"}, {"measurement": "Antifungal index (mycelial growth inhibition rate)", "setting": "Botrytis cinerea; 0.16 mg/L", "result": "3 (Less than 80% but not less than 70%)"}, {"measurement": "Antifungal index (mycelial growth inhibition rate)", "setting": "Botrytis cinerea; 0.31 mg/L", "result": "5 (90% or greater)"}, {"measurement": "Antifungal index (mycelial growth inhibition rate)", "setting": "Botrytis cinerea; 0.63 mg/L", "result": "5 (90% or greater)"}, {"measurement": "Antifungal index (mycelial growth inhibition rate)", "setting": "Botrytis cinerea; 1.25 mg/L", "result": "5 (90% or greater)"}, {"measurement": "Antifungal index (mycelial growth inhibition rate)", "setting": "Botrytis cinerea; 2.50 mg/L", "result": "5 (90% or greater)"}]}]}
